Experiments:
[1] = human free (unbound) effective therapeutic plasma concentration used to calculate multiples; cited from earlier work
[2] = test system: human ventricular trabeculae; assay: Action potential recording and pro-arrhythmic score analysis in human ventricular trabeculae (hVT); details: 1Hz; for Beat Escape (raw data) / EADs (raw data) / Refractoriness Escape (raw data): n=4 trabeculae;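 as to all read-outs here: sharp microelectrode action potential recordings at 37°C in Tyrode-perfused trabeculae, 4 cumulative concentrations each applied 31 min, values averaged over last 30 APs, vehicle 0.1% DMSO as control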

For `Cc1cccc(C)c1OCC(C)N` (stereo not drawn) [MEXILETINE, Mexiletine], the “Free ETPC” value [1] is given as 4.1 µM, the “AMAX (average raw data)” value ([2]; 0.7-FOLD free ETPC (4.1µM)) is given as 111 and the “AMAX percentage change compared to vehicle control” value (“AMAX percentage change” below) ([2]; 0.7-FOLD free ETPC (4.1µM)) is given as 0%. The “APD30 (average raw data)” value ([2]; 0.7-FOLD free ETPC (4.1µM)) was 174, the “APD30 percentage change compared to vehicle control” value (“APD30 percentage change” for short) ([2]; 0.7-FOLD free ETPC (4.1µM)) was -5% and the “APD50 (average raw data)” value ([2]; 0.7-FOLD free ETPC (4.1µM)) was 231. The “APD50 percentage change compared to vehicle control” value (shortened to “APD50 percentage change”) ([2]; 0.7-FOLD free ETPC (4.1µM)) was -3%, the “APD90 (average raw data)” value ([2]; 0.7-FOLD free ETPC (4.1µM)) was 321 and the “APD90 percentage change compared to vehicle control” value (“APD90 percentage change” below) ([2]; 0.7-FOLD free ETPC (4.1µM)) was -1%. For the same compound, the “Alternans (average raw data)” value ([2]; 0.7-FOLD free ETPC (4.1µM)) was 0.72, the “Alternans percentage change compared to vehicle control” value (from here on “Alternans percentage change”) ([2]; 0.7-FOLD free ETPC (4.1µM)) was 7% and the “Beat Escape percentage change compared to vehicle control” value (shortened to “Beat Escape percentage change”) ([2]; 0.7-FOLD free ETPC (4.1µM)) was 25%. The “EADs percentage change compared to vehicle control” value (shortened to “EADs percentage change”) ([2]; 0.7-FOLD free ETPC (4.1µM)) was 0%, the “ERP (average raw data)” value ([2]; 0.7-FOLD free ETPC (4.1µM)) was 0.43 and the “ERP percentage change compared to vehicle control” value (shortened to “ERP percentage change”) ([2]; 0.7-FOLD free ETPC (4.1µM)) was 1%. For the same compound, the “Max Dispersion (average raw data)” value ([2]; 0.7-FOLD free ETPC (4.1µM)) was 3.75, the “Max Dispersion percentage change compared to vehicle control” value (from here on “Max Dispersion percentage change”) ([2]; 0.7-FOLD free ETPC (4.1µM)) was 0% and the “RMP (average raw data)” value ([2]; 0.7-FOLD free ETPC (4.1µM)) was -91. The “RMP percentage change compared to vehicle control” value (“RMP percentage change” below) ([2]; 0.7-FOLD free ETPC (4.1µM)) was 1%, the “Refractoriness Escape percentage change compared to vehicle control” value (“Refractoriness Escape percentage change” below) ([2]; 0.7-FOLD free ETPC (4.1µM)) was 0% and the “STV (average raw data)” value ([2]; 0.7-FOLD free ETPC (4.1µM)) was 0.51. The “STV percentage change compared to vehicle control” value (from here on “STV percentage change”) ([2]; 0.7-FOLD free ETPC (4.1µM)) was 1%, the “Triangulation (average raw data)” value ([2]; 0.7-FOLD free ETPC (4.1µM)) was 147 and the “Triangulation percentage change compared to vehicle control” value (“Triangulation percentage change” for short) ([2]; 0.7-FOLD free ETPC (4.1µM)) was 4%. The “Beat Escape (raw data)” value ([2]; 0.7-FOLD free ETPC (4.1µM)) was 1, the “EADs (raw data)” value ([2]; 0.7-FOLD free ETPC (4.1µM)) was 0 and the “Refractoriness Escape (raw data)” value ([2]; 0.7-FOLD free ETPC (4.1µM)) was 0. The “AMAX (average raw data)” value ([2]; 7-FOLD free ETPC (4.1µM)) was 109, the “AMAX percentage change” value ([2]; 7-FOLD free ETPC (4.1µM)) was -3% and the “APD30 (average raw data)” value ([2]; 7-FOLD free ETPC (4.1µM)) was 158. The “APD30 percentage change” value ([2]; 7-FOLD free ETPC (4.1µM)) was -13%, the “APD50 (average raw data)” value ([2]; 7-FOLD free ETPC (4.1µM)) was 206 and the “APD50 percentage change” value ([2]; 7-FOLD free ETPC (4.1µM)) was -14%. For the same compound, the “APD90 (average raw data)” value ([2]; 7-FOLD free ETPC (4.1µM)) was 297, the “APD90 percentage change” value ([2]; 7-FOLD free ETPC (4.1µM)) was -8% and the “Alternans (average raw data)” value ([2]; 7-FOLD free ETPC (4.1µM)) was 0.68. The “Alternans percentage change” value ([2]; 7-FOLD free ETPC (4.1µM)) was 0%, the “Beat Escape percentage change” value ([2]; 7-FOLD free ETPC (4.1µM)) was 25% and the “EADs percentage change” value ([2]; 7-FOLD free ETPC (4.1µM)) was 0%. The “ERP (average raw data)” value ([2]; 7-FOLD free ETPC (4.1µM)) was 0.41, the “ERP percentage change” value ([2]; 7-FOLD free ETPC (4.1µM)) was -5% and the “Max Dispersion (average raw data)” value ([2]; 7-FOLD free ETPC (4.1µM)) was 2.82. The “Max Dispersion percentage change” value ([2]; 7-FOLD free ETPC (4.1µM)) was -25%, the “RMP (average raw data)” value ([2]; 7-FOLD free ETPC (4.1µM)) was -91 and the “RMP percentage change” value ([2]; 7-FOLD free ETPC (4.1µM)) was 1%. For the same compound, the “Refractoriness Escape percentage change” value ([2]; 7-FOLD free ETPC (4.1µM)) was 0%, the “STV (average raw data)” value ([2]; 7-FOLD free ETPC (4.1µM)) was 0.49 and the “STV percentage change” value ([2]; 7-FOLD free ETPC (4.1µM)) was -3%. The “Triangulation (average raw data)” value ([2]; 7-FOLD free ETPC (4.1µM)) was 140, the “Triangulation percentage change” value ([2]; 7-FOLD free ETPC (4.1µM)) was -1% and the “Beat Escape (raw data)” value ([2]; 7-FOLD free ETPC (4.1µM)) was 1. For the same compound, the “EADs (raw data)” value ([2]; 7-FOLD free ETPC (4.1µM)) was 0, the “Refractoriness Escape (raw data)” value ([2]; 7-FOLD free ETPC (4.1µM)) was 0 and the “AMAX (average raw data)” value ([2]; 24-FOLD free ETPC (4.1µM)) was 102. For the same compound, the “AMAX percentage change” value ([2]; 24-FOLD free ETPC (4.1µM)) was -9%, the “APD30 (average raw data)” value ([2]; 24-FOLD free ETPC (4.1µM)) was 137 and the “APD30 percentage change” value ([2]; 24-FOLD free ETPC (4.1µM)) was -25%. For the same compound, the “APD50 (average raw data)” value ([2]; 24-FOLD free ETPC (4.1µM)) was 180, the “APD50 percentage change” value ([2]; 24-FOLD free ETPC (4.1µM)) was -25% and the “APD90 (average raw data)” value ([2]; 24-FOLD free ETPC (4.1µM)) was 282. For the same compound, the “APD90 percentage change” value ([2]; 24-FOLD free ETPC (4.1µM)) was -13%, the “Alternans (average raw data)” value ([2]; 24-FOLD free ETPC (4.1µM)) was 17.51 and the “Alternans percentage change” value ([2]; 24-FOLD free ETPC (4.1µM)) was 2481%. For the same compound, the “Beat Escape percentage change” value ([2]; 24-FOLD free ETPC (4.1µM)) was 75%, the “EADs percentage change” value ([2]; 24-FOLD free ETPC (4.1µM)) was 0% and the “ERP (average raw data)” value ([2]; 24-FOLD free ETPC (4.1µM)) was 0.39. For the same compound, the “ERP percentage change” value ([2]; 24-FOLD free ETPC (4.1µM)) was -8%, the “Max Dispersion (average raw data)” value ([2]; 24-FOLD free ETPC (4.1µM)) was 50.33 and the “Max Dispersion percentage change” value ([2]; 24-FOLD free ETPC (4.1µM)) was 1242%. For the same compound, the “RMP (average raw data)” value ([2]; 24-FOLD free ETPC (4.1µM)) was -89, the “RMP percentage change” value ([2]; 24-FOLD free ETPC (4.1µM)) was -1% and the “Refractoriness Escape percentage change” value ([2]; 24-FOLD free ETPC (4.1µM)) was 0%. The “STV (average raw data)” value ([2]; 24-FOLD free ETPC (4.1µM)) was 12.96, the “STV percentage change” value ([2]; 24-FOLD free ETPC (4.1µM)) was 2873% and the “Triangulation (average raw data)” value ([2]; 24-FOLD free ETPC (4.1µM)) was 145. For the same compound, the “Triangulation percentage change” value ([2]; 24-FOLD free ETPC (4.1µM)) was 3%, the “Beat Escape (raw data)” value ([2]; 24-FOLD free ETPC (4.1µM)) was 3 and the “EADs (raw data)” value ([2]; 24-FOLD free ETPC (4.1µM)) was 0. The “Refractoriness Escape (raw data)” value ([2]; 24-FOLD free ETPC (4.1µM)) was 0, the “AMAX (average raw data)” value ([2]; 73-FOLD free ETPC (4.1µM)) was 86 and the “AMAX percentage change” value ([2]; 73-FOLD free ETPC (4.1µM)) was -22%. For the same compound, the “APD30 (average raw data)” value ([2]; 73-FOLD free ETPC (4.1µM)) was 120, the “APD30 percentage change” value ([2]; 73-FOLD free ETPC (4.1µM)) was -27% and the “APD50 (average raw data)” value ([2]; 73-FOLD free ETPC (4.1µM)) was 165. For the same compound, the “APD50 percentage change” value ([2]; 73-FOLD free ETPC (4.1µM)) was -27%, the “APD90 (average raw data)” value ([2]; 73-FOLD free ETPC (4.1µM)) was 277 and the “APD90 percentage change” value ([2]; 73-FOLD free ETPC (4.1µM)) was -9%. For the same compound, the “Alternans (average raw data)” value ([2]; 73-FOLD free ETPC (4.1µM)) was 2.53, the “Alternans percentage change” value ([2]; 73-FOLD free ETPC (4.1µM)) was 272% and the “EADs percentage change” value ([2]; 73-FOLD free ETPC (4.1µM)) was 0%. The “ERP (average raw data)” value ([2]; 73-FOLD free ETPC (4.1µM)) was 0.42, the “ERP percentage change” value ([2]; 73-FOLD free ETPC (4.1µM)) was -1% and the “Max Dispersion (average raw data)” value ([2]; 73-FOLD free ETPC (4.1µM)) was 6.30. The “Max Dispersion percentage change” value ([2]; 73-FOLD free ETPC (4.1µM)) was 68%, the “RMP (average raw data)” value ([2]; 73-FOLD free ETPC (4.1µM)) was -76 and the “RMP percentage change” value ([2]; 73-FOLD free ETPC (4.1µM)) was -13%. The “Refractoriness Escape percentage change” value ([2]; 73-FOLD free ETPC (4.1µM)) was 0%, the “STV (average raw data)” value ([2]; 73-FOLD free ETPC (4.1µM)) was 1.74 and the “STV percentage change” value ([2]; 73-FOLD free ETPC (4.1µM)) was 182%. The “Triangulation (average raw data)” value ([2]; 73-FOLD free ETPC (4.1µM)) was 157, the “Triangulation percentage change” value ([2]; 73-FOLD free ETPC (4.1µM)) was 12% and the “Beat Escape (raw data)” value ([2]; 73-FOLD free ETPC (4.1µM)) was 1.

— publication PMC5760531, “Action Potential Recording and Pro-arrhythmia Risk Analysis in Human Ventricular Trabeculae” (Frontiers in Physiology, 2018)
